Data as given in ChEMBL document CHEMBL4616674, “Fragment-based Differential Targeting of PPI Stabilizer Interfaces” (J Med Chem, 2020).
Each block holds one compound with its values, some of them ahead of it. Active and inactive are the calls of the source. The calls are words filed in the database; no cut-off is given here.

Tests used:
[1] = target: T1, 14-3-3 protein sigma (Homo sapiens) (UniProt P31947); assay: Binding affinity to 6x-His tagged 14-3-3-sigma (unknown origin) expressed in Escherichia coli BL21 (DE3) in presence of acetylated p53pT387 peptide by crystallography
T1 sequence (whole entry): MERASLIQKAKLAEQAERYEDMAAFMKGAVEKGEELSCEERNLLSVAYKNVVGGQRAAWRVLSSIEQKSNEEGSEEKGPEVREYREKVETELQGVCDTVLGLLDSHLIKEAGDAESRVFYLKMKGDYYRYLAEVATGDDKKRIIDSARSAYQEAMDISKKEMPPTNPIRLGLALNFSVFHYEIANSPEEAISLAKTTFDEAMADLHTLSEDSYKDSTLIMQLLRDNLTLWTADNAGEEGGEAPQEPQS

[2] = target: T1, 14-3-3 protein sigma (Homo sapiens); assay: Binding affinity to 6x-His tagged 14-3-3-sigma (unknown origin) expressed in Escherichia coli at 1 mM by fluorescence polarization assay
[3] = target: T1, 14-3-3 protein sigma (Homo sapiens); assay: Binding affinity to 15N2H labeled and 6x-His tagged 14-3-3-sigma (unknown origin) expressed in Escherichia coli assessed as induction of broadening (intensity decrease) and chemical shift value perturbation at 2000 uM in presence of p53pT387 peptide by 1H-15N TROSY-HSQC NMR spectroscopy
[4] = target: T1, 14-3-3 protein sigma (Homo sapiens); assay: Binding affinity to 15N2H labeled and 6x-His tagged 14-3-3-sigma (unknown origin) expressed in Escherichia coli assessed as induction of broadening (intensity decrease) and chemical shift value perturbation at 2000 uM in absence of p53pT387 peptide by 1H-15N TROSY-HSQC NMR spectroscopy
[5] = target: T1, 14-3-3 protein sigma (Homo sapiens); assay: Binding affinity to 6x-His tagged 14-3-3-sigma (unknown origin) expressed in Escherichia coli at 1 mM by SPR assay
[6] = target: T1, 14-3-3 protein sigma (Homo sapiens); assay: Binding affinity to 6x-His tagged 14-3-3-sigma (unknown origin) expressed in Escherichia coli BL21 (DE3) at 500 uM in presence of p53pT387 peptide by WaterLOGSY NMR spectroscopy

Activity [1]: Active
Compound: CC(CN)Nc1cccc2cc(C(=N)N)sc12 (stereo not drawn)

Activity [1]: Active
Compound: CC(CN)Nc1cc(CS)cc2sc(C(=N)N)cc12 (stereo not drawn)

Activity [2]: Active
Activity [3]: Active
Activity [4]: Active
Activity [5]: Active
Activity [6]: Active
Compound: CC(C)Oc1ccc(C(=O)NCCN)c2cc(C(=N)N)sc12

Activity [1]: Active
Compound: N=C(N)c1cc(-c2ccccc2)c(-c2c[nH]cn2)s1
